Like-named read-outs stand apart in the source and are kept apart here.
How the values were obtained:
[1] = system: murine leukemia L1210 cells; test: Cytostatic activity: inhibition of proliferation of murine leukemia L1210 cells; format: cell-based
Procedure: (§1) The cytotoxicity of the tested compounds toward the uninfected host cells was defined as the minimum cytotoxic concentration (MCC) that causes a microscopically-detectable alteration of normal cell morphology. The 50% cytotoxic concentration (CC50), causing a 50% decrease in cell viability, was determined using a colorimetric 3-(4,5-dimethylthiazol-2-yl)-5-(3-carboxymethoxyphenyl)-2-(4-sulfophenyl)-2H-tetrazolium (MTS) assay system. The cytostatic activity of the tested compounds was defined as the 50% cytostatic inhibitory concentration (IC50), causing a 50% decrease in cell proliferation, and was determined against murine leukemia L1210, human T-lymphocyte CEM and human cervix carcinoma HeLa cells (Table 1).
(§2) All assays were performed in 96-well microtiter plates. To each well were added (5−7.5) × 10^4 tumor cells and a given amount of the test compound. The cells were allowed to proliferate for 48 h (murine leukemia L1210 cells) or 72 h (human lymphocytic CEM and human cervix carcinoma HeLa cells) at 37 °C in a humidified CO2-controlled atmosphere. At the end of the incubation period, the cells were counted in a Coulter counter. The IC50 (50% inhibitory concentration) was defined as the concentration of the compound that inhibited cell proliferation by 50%.

[2] = system: human cervix carcinoma HeLa cells; test: Cytostatic activity: inhibition of proliferation of human cervix carcinoma HeLa cells; format: cell-based; details: read-out: IC50 (HeLa)
Procedure: as §1, §2

[3] = system: human T-lymphocyte CEM cells; test: Cytostatic activity: inhibition of proliferation of human T-lymphocyte CEM cells; format: cell-based; details: read-out: IC50 (CEM)
Procedure: as §1, §2

[4] = system: thymidine phosphorylase; design: method as in PMID 22372816; details: cited from earlier work
[5] = Mus musculus, L1210, 48 h, read-out: IC50 (L1210)
[6] = Mus musculus, L1210, 48 h, murine leukemia L1210 cells, 48 h proliferation, Coulter counter, read-out: IC50 (L1210)
[7] = human cervix carcinoma HeLa cells, 72 h proliferation, Coulter counter
[8] = CCRF-CEM, human T-lymphocyte CEM cells, 72 h proliferation, Coulter counter
[9] = Mus musculus, L1210, range over both L1210 and CEM cells and both 17k isomers, read-out: IC50 against proliferation of L1210 and CEM cell lines (range given)
[10] = range over both L1210 and CEM cells and both 17k isomers, read-out: IC50 against proliferation of L1210 and CEM cell lines (range given)

Compound | IC50 [1, 5] [µM] | IC50 ([2]; Homo sapiens, HeLa, 72 h) [µM] | IC50 ([3]; Homo sapiens, CCRF-CEM, 72 h) [µM] | other results
CCOP(=O)(CC(O)Cn1cc(Cn2cnc3c(Cl)nc(N)nc32)nn1)OCC (stereo not shown) [Compound 17f, Diethyl 3-{4-[(2-amino-6-chloro-9H-purin-9-yl)methyl]-1H-1,2,3-triazol-1-yl}-2-hydroxypropylphosphonate] | > 250 | > 250 | > 250 | –
O=c1[nH]cc(F)c(=O)[nH]1 [5-fluorouracil, reference compound] | – | – | – | IC50 [1, 6]: 0.33 ± 0.17 µM; IC50 [2, 7]: 0.54 ± 0.12 µM; IC50 [3, 8]: 18 ± 5 µM
CCOP(=O)(OCC)C(O)CCn1cc(Cn2cnc3c(Cl)nc(N)nc32)nn1 (stereo not shown) [Compound 17g, Diethyl 3-{4-[(2-amino-6-chloro-9H-purin-9-yl)methyl]-1H-1,2,3-triazol-1-yl}-1-hydroxypropylphosphonate] | > 250 | > 250 | > 250 | –
CCOP(=O)(Cn1cc(Cn2cnc3c(Cl)nc(N)nc32)nn1)OCC [Compound 17a, Diethyl {4-[(2-amino-6-chloro-9H-purin-9-yl)methyl]-1H-1,2,3-triazol-1-yl}methylphosphonate] | 283 ± 17 | ≥ 250 | ≥ 250 | –
CCOP(=O)(Cn1cc(Cn2cnc3c(=O)[nH]c(N)nc32)nn1)OCC [Compound 16a, Diethyl {4-[(2-amino-6-oxo-1,6-dihydro-9H-purin-9-yl)methyl]-1H-1,2,3-triazol-1-yl}methylphosphonate] | > 250 | > 250 | > 250 | –
CCOP(=O)(CCOCCn1cc(Cn2cnc3c(Cl)nc(N)nc32)nn1)OCC [Compound 17i, Diethyl 2-{4-[(2-amino-6-chloro-9H-purin-9-yl)methyl]-1H-1,2,3-triazol-1-yl}-ethoxyethylphosphonate] | > 250 | > 250 | > 250 | –
CCOP(=O)(CCn1cc(Cn2cnc3c(Cl)nc(N)nc32)nn1)OCC [Compound 17b, Diethyl 2-{4-[(2-amino-6-chloro-9H-purin-9-yl)methyl]-1H-1,2,3-triazol-1-yl}ethylphosphonate] | ≥ 250 | 227 ± 32 | > 250 | –
CCOP(=O)(OCC)C(O)Cn1cc(Cn2cnc3c(=O)[nH]c(N)nc32)nn1 (stereo not shown) [Compound 16e, Diethyl 2-{4-[(2-amino-6-oxo-1,6-dihydro-9H-purin-9-yl)methyl]-1H-1,2,3-triazol-1-yl}-1-hydroxyethylphosphonate] | > 250 | 206 ± 49 | > 250 | melting point: > 265 °C
CCOP(=O)(COCCn1cc(Cn2cnc3c(=O)[nH]c(N)nc32)nn1)OCC [Compound 16h, Diethyl 2-{4-[(2-amino-6-oxo-1,6-dihydro-9H-purin-9-yl)methyl]-1H-1,2,3-triazol-1-yl}ethoxymethyphosphonate] | > 250 | ≥ 250 | > 250 | melting point: 89 to 92 °C
Nc1nc(Cl)c2ncn(Cc3cn(C[C@H](OCc4ccccc4)[C@H](O)P(=O)(OCc4ccccc4)OCc4ccccc4)nn3)c2n1 [(1R,2S)-17k, (1R,2S)-Dibenzyl 3-{4-[(2-amino-6-chloro-9H-purin-9-yl)methyl]-1H-1,2,3-triazol-1-yl}-2-benzyloxy-1-hydroxypropylphosphonate] | – | – | – | IC50 [1, 6]: 21 ± 2 µM; IC50 [1, 9]: 15 to 30 µM; IC50 [1, 10]: 16 to 30 µM; IC50 [2, 7]: 90 ± 33 µM; IC50 [3, 8]: 26 ± 8 µM
CCOP(=O)(CCCn1cc(Cn2cnc3c(=O)[nH]c(N)nc32)nn1)OCC [Compound 16c, Diethyl 3-{4-[(2-amino-6-oxo-1,6-dihydro-9H-purin-9-yl)methyl]-1H-1,2,3-triazol-1-yl}propylphosphonate] | > 250 | 138 ± 52 | > 250 | –
Nc1nc2c(ncn2Cc2cn(CCCCC(F)(F)P(=O)(O)O)nn2)c(=O)[nH]1 [Compound 13] | – | – | – | Inhibitory activity against thymidine phosphorylase [4]: inhibitory activity
CCOP(=O)(CNC(=O)Cn1cc(Cn2cnc3c(=O)[nH]c(N)nc32)nn1)OCC [Compound 16j, Diethyl 2-{4-[(2-amino-6-oxo-1,6-dihydro-9H-purin-9-yl)methyl]-1H-1,2,3-triazol-1-yl}acetamidomethyphosphonate] | > 250 | 212 ± 54 | > 250 | melting point: > 230 °C
CCOP(=O)(OCC)C(O)Cn1cc(Cn2cnc3c(Cl)nc(N)nc32)nn1 (stereo not shown) [Compound 17e, Diethyl 2-{4-[(2-amino-6-chloro-9H-purin-9-yl)methyl]-1H-1,2,3-triazol-1-yl}-1-hydroxyethylphosphonate] | > 250 | > 250 | > 250 | melting point: 174 to 175 °C
Diethyl 2-{4-[(2-amino-6-chloro-9H-purin-9-yl)methyl]-1H-1,2,3-triazol-1-yl}-acetamidoethylphosphonate [Compound 17j] | – | – | – | IC50 ([1]; murine leukemia L1210 cells, 48 h proliferation, Coulter counter, read-out: IC50 (L1210)): > 250 µM; IC50 [2, 7]: > 250 µM; IC50 ([3]; human T-lymphocyte CEM cells, 72 h proliferation, Coulter counter): > 250 µM
CCOP(=O)(COCCn1cc(Cn2cnc3c(Cl)nc(N)nc32)nn1)OCC [Compound 17h, Diethyl 2-{4-[(2-amino-6-chloro-9H-purin-9-yl)methyl]-1H-1,2,3-triazol-1-yl}-ethoxymethylphosphonate] | > 250 | > 250 | ≥ 250 | –
CCOP(=O)(CCCCn1cc(Cn2cnc3c(=O)[nH]c(N)nc32)nn1)OCC [Compound 16d, Diethyl 4-{4-[(2-amino-6-oxo-1,6-dihydro-9H-purin-9-yl)methyl]-1H-1,2,3-triazol-1-yl}butylphosphonate] | > 250 | 148 ± 25 | > 250 | –
CCOP(=O)(OCC)C(O)CCn1cc(Cn2cnc3c(=O)[nH]c(N)nc32)nn1 (stereo not shown) [Compound 16g, Diethyl 3-{4-[(2-amino-6-oxo-1,6-dihydro-9H-purin-9-yl)methyl]-1H-1,2,3-triazol-1-yl}-1-hydroxypropylphosphonate] | > 250 | 185 ± 35 | > 250 | –
CCOP(=O)(CCCCn1cc(Cn2cnc3c(Cl)nc(N)nc32)nn1)OCC [Compound 17d, Diethyl 4-{4-[(2-amino-6-chloro-9H-purin-9-yl)methyl]-1H-1,2,3-triazol-1-yl}butylphosphonate] | > 250 | ≥ 250 | > 250 | –
CCOP(=O)(CCCn1cc(Cn2cnc3c(Cl)nc(N)nc32)nn1)OCC [Compound 17c, Diethyl 3-{4-[(2-amino-6-chloro-9H-purin-9-yl)methyl]-1H-1,2,3-triazol-1-yl}propylphosphonate] | 227 ± 32 | ≥ 250 | > 250 | –
CCOP(=O)(CCOCCn1cc(Cn2cnc3c(=O)[nH]c(N)nc32)nn1)OCC [Compound 16i, Diethyl 2-{4-[(2-amino-6-oxo-1,6-dihydro-9H-purin-9-yl)methyl]-1H-1,2,3-triazol-1-yl}ethoxyethyphosphonate] | > 250 | 210 ± 13 | > 250 | –
CCOP(=O)(CCn1cc(Cn2cnc3c(=O)[nH]c(N)nc32)nn1)OCC [Compound 16b, Diethyl 2-{4-[(2-amino-6-oxo-1,6-dihydro-9H-purin-9-yl)methyl]-1H-1,2,3-triazol-1-yl}ethylphosphonate] | > 250 | > 250 | > 250 | –
CCOP(=O)(CC(O)Cn1cc(Cn2cnc3c(=O)[nH]c(N)nc32)nn1)OCC (stereo not shown) [Compound 16f, Diethyl 3-{4-[(2-amino-6-oxo-1,6-dihydro-9H-purin-9-yl)methyl]-1H-1,2,3-triazol-1-yl}-2-hydroxypropylphosphonate] | > 250 | 195 ± 78 | > 250 | –
Nc1nc(Cl)c2ncn(Cc3cn(C[C@H](OCc4ccccc4)[C@@H](O)P(=O)(OCc4ccccc4)OCc4ccccc4)nn3)c2n1 [(1S,2S)-17k, (1S,2S)-Dibenzyl 3-{4-[(2-amino-6-chloro-9H-purin-9-yl)methyl]-1H-1,2,3-triazol-1-yl}-2-benzyloxy-1-hydroxypropylphosphonate] | – | – | – | IC50 [1, 6]: 16 ± 6 µM; IC50 [1, 9]: 15 to 30 µM; IC50 [1, 10]: 16 to 30 µM; IC50 [2, 7]: 84 ± 12 µM; melting point: 76 to 78 °C; IC50 [3, 8]: 30 ± 16 µM

Reference: publication PMC6332235, “Phosphonylated Acyclic Guanosine Analogues with the 1,2,3-Triazole Linker” (Molecules, 2015)
